Measured values published in PMC10827914 (Cellular and Molecular Life Sciences: CMLS, 2024).
Counter-ions that a name gives are not always drawn.

Tests used:
[1] = tested on: membrane CD13 expressed by HUVEC; assay: Competitive binding of anti-CD13 mAb WM15 to HUVEC by flow cytometry; parameters: species or system human; details: Fig. 4C and 4D
Procedure: HUVEC were seeded in 96-well U-bottom polystyrene microtiter plates at a density of 2 × 10^5 cells in 100 µL DPBS supplemented with 5% normal human serum (NHS) and mixed with a mixture of peptide G4 ranging from 0 to 10 µM and mAb WM15 (0 or 0.13 nM). The chromogranin A429-439 peptide fragment (CgA429-439) was used instead of G4 as a control. After 1 h of incubation at 4 °C, the cells were washed and resuspended in 100 µL of DPBS containing 5% NHS and 1 µg/mL of FITC-labeled goat anti-mouse IgG secondary antibody. Cells were subsequently incubated for 1 h at 4 °C, washed, and analyzed by flow cytometry. All flow cytometry data were collected on a CytoFLEX S flow cytometer (Beckman Coulter) and analyzed using FlowJo software 10 (BD BioScience).
Fig. 2 G4 recognizes soluble forms of CD13, with higher affinity and selectivity than bestatin, and the membrane forms expressed on the surface of HUVEC cells. A Inhibitory effects of G4 and bestatin on the enzymatic activities of different aminopeptidases (rCD13, APA, and APB). Various amounts of G4 or bestatin were incubated with rCD13 (0.2 µg/mL in 60 mM Tris–HCl pH 7.4), APA (0.2 µg/mL in 60 mM Tris–HCl pH 7.4, 50 mM calcium chloride, 200 mM sodium chloride) or APB (0.2 µg/mL in 60 mM Tris–HCl pH 7.4, 100 mM potassium chloride) and the corresponding substrates at 0.1 mM (L-alanine-7-amido-4-methylcoumarin for rCD13, L-glutamic acid γ-(7-amido-4-methylcoumarin) for APA, and L-arginine-7-amido-4-methylcoumarin for APB). The mixtures were incubated for 30 min at 37 °C, and the cleavage of each substrate was monitored by measuring the fluorescence of methylcoumarin (λex 341 nm; λem 441 nm) using an Infinite 200 PRO plate reader (Tecan). Three independent experiments were performed for each enzyme. […] Substrate cleavage by sCD13 dissociated from mAb WM15 was then monitored by measuring the absorbance at 405 nm in each well using a plate reader (Bio-Rad). […] After incubation for 60 min at 4 °C, the cells were washed and analyzed by flow cytometry. Data are expressed as the percentage of counts vs. fluorescence intensity units […]

HUVEC = HUVEC cell adhesion assay on coated microtiter plates; assay type: cell-based, human; details: plates coated with 10 µg/mL, 4 × 10^5 HUVEC, 2.5 h, 37 °C, crystal violet, absorbance 540 nm
Procedure: The peptide VGCARRYCSGGSGGGSGK-biotin, with a biotin moiety linked to the ε-aminogroup of the Lys residue (ProteoGenix), was complexed with streptavidin (G4-streptavidin) or avidin (G4-avidin) by mixing it with a molar excess of streptavidin or avidin in DPBS (1:6 mol/mol), followed by incubation for 1 h at room temperature under mild stirring. To perform the cell adhesion assay, 96-well polyvinyl chloride microtiter plates were coated with G4-avidin or G4-streptavidin (10 µg/mL in DPBS, overnight, 4 °C). After blocking with 2% BSA in EBM-2 (45 min at room temperature), 4 × 10^5 HUVEC were seeded in Endothelial Cell Growth Basal Medium-2 (EBM-2, Cat. # 00190860, Lonza) and incubated for 2.5 h at 37 °C, 5% CO2. Unbound cells were removed by washing with EBM-2, and adherent cells were fixed with 3% paraformaldehyde and 2% sucrose in DPBS and stained with 0.5% crystal violet. The number of adherent cells was quantified by measuring the absorbance of the wells at 540 nm wavelength using a microplate reader.
Fig. 7 Adhesion of HUVEC cells to microtiter plates coated with G4-avidin or G4-streptavidin conjugates. Representative images of wells coated with 10 µg/mL of G4-avidin (A) or G4-streptavidin (B) complexes. Wells coated with avidin or streptavidin were used as negative controls. The absorbance of crystal violet-stained adherent cells is also shown. […]

[2] = target: T1, recombinant human CD13 (rCD13) (Homo sapiens, UniProt P15144); assay: rCD13 enzyme inhibition assay, L-alanine-p-nitroanilide substrate; assay type: biochemical; details: Fig. 4B and 4E, one experiment in duplicate
T1 construct: consisting of the CD13 extracellular domain expressed in HEK-293 cells; His-tag; purchased Sino Biological 10051-H08H; host or cells: HEK-293 cells
Procedure: (§1) Recombinant CD13 (rCD13) enzyme activity and inhibition assays were performed as described previously using L-alanine-p-nitroanilide or L-alanine 7-amido-4-methylcoumarin as substrates in 60 mM Tris–HCl, pH 7.4, or 60 mM potassium phosphate buffer, pH 7.4. Mixtures containing peptides at various concentrations, rCD13 (0.2 µg/mL), and L-alanine-p-nitroanilide substrate (0.5 mM) in 60 mM potassium phosphate buffer, pH 7.4 (total volume, 0.1 ml) were prepared and left to react for 30 min at 37 °C. The products were then analyzed using a plate reader (iMark Microplate Absorbance Reader; Bio-Rad). Alternatively, the assay was performed using 0.1 mM L-alanine 7-amido-4-methylcoumarin in 60 mM Tris–HCl, pH 7.4, as a substrate. Fluorescence intensity of methylcoumarin was measured on an Infinite 200 PRO plate reader (Tecan) using the following settings: excitation wavelength: 341 nm; emission wavelength: 441 nm; excitation bandwidth: 9; emission bandwidth: 20 nm; gain: 109 manual; number of flashes: 25; integration time: 20 µs; lag time: 0 µs; settle time: 0 ms.
(§2) The IC50 of each inhibitor was calculated by non-linear regression analysis of inhibition data using GraphPad Prism Software (GraphPad Software, Version 9.00, San Diego, CA). Steady-state enzyme kinetic analyses were performed using various concentrations of L-alanine-p-nitroanilide (0–1.5 mM) and VGCARRYCS peptide (0–900 nM). The initial velocities (Vo) were calculated from the slopes of the first 5 min of reaction. The enzyme inhibitory constant (Ki) was calculated using the competitive enzyme inhibition model in GraphPad Prism Software.
A) VGCGRRYCSN and CSGIGSSGGC (control) peptides, at various concentrations, were mixed with rCD13 (0.2 µg/mL), L-alanine-p-nitroanilide substrate (0.5 mM), in 60 mM potassium phosphate buffer, pH 7.4. The mixtures were left to react for 30 min at 37° C; then the absorbance at 405 nm of each mixture was measured using an ELISA plate reader (Bio-Rad). The IC50 of each inhibitor was calculated by non-linear regression analysis of inhibition data using the GraphPad Prism Software (GraphPad Software, Version 9.00, San Diego, CA). The result of one experiment performed in duplicate is shown (mean ± SEM).

[3] = target: T1, recombinant human CD13 (rCD13); assay: rCD13 enzyme inhibition assay, L-alanine 7-amido-4-methylcoumarin substrate; assay type: biochemical; details: rCD13 0.2 µg/mL, 60 mM Tris–HCl pH 7.4, 0.1 mM L-alanine-7-amido-4-methylcoumarin, 30 min, 37 °C
Procedure: as §1, §2
Fig. 2 G4 recognizes soluble forms of CD13, with higher affinity and selectivity than bestatin, and the membrane forms expressed on the surface of HUVEC cells. A Inhibitory effects of G4 and bestatin on the enzymatic activities of different aminopeptidases (rCD13, APA, and APB). Various amounts of G4 or bestatin were incubated with rCD13 (0.2 µg/mL in 60 mM Tris–HCl pH 7.4), APA (0.2 µg/mL in 60 mM Tris–HCl pH 7.4, 50 mM calcium chloride, 200 mM sodium chloride) or APB (0.2 µg/mL in 60 mM Tris–HCl pH 7.4, 100 mM potassium chloride) and the corresponding substrates at 0.1 mM (L-alanine-7-amido-4-methylcoumarin for rCD13, L-glutamic acid γ-(7-amido-4-methylcoumarin) for APA, and L-arginine-7-amido-4-methylcoumarin for APB). The mixtures were incubated for 30 min at 37 °C, and the cleavage of each substrate was monitored by measuring the fluorescence of methylcoumarin (λex 341 nm; λem 441 nm) using an Infinite 200 PRO plate reader (Tecan). Three independent experiments were performed for each enzyme. The results of one representative experiment for each enzyme are shown (mean ± SEM, duplicates). B Inhibitory effects of G4 and bestatin on soluble CD13 immunocaptured from human serum (sCD13) using microtiter plates coated with anti-CD13 mAb WM15. The microtiter plate was filled with a solution of mAb WM15 (5 μg/ml in DPBS) and incubated overnight at 4 °C. The plate was then washed with DPBS, blocked with 3% bovine serum albumin (BSA) in DPBS, and filled with human serum containing soluble CD13 (diluted 1:2 with DPBS containing 2% BSA). After washing with DPBS, mixtures of G4 or bestatin (0–100 µM in 60 mM Tris–HCl, pH 7.4) and L-alanine p-nitroanilide hydrochloride substrate (4.5 mM in 60 mM Tris–HCl, pH 7.4) were added and left to incubate at 37 °C for 2 h. Substrate cleavage by sCD13 dissociated from mAb WM15 was then monitored by measuring the absorbance at 405 nm in each well using a plate reader (Bio-Rad). The results of one experiment performed in triplicate are shown (mean ± SEM). C Effect of G4 on the binding of the anti-CD13 mAb WM15 to HUVEC. HUVEC were seeded at a density of 2 × 10^5 cells in 100 µL DPBS supplemented with 5% normal human serum (NHS) and incubated with a mixture of G4 peptide (0, 0.1, 1, and 10 µM) and mAb WM15 (0 or 0.13 nM) as indicated. […]

[4] = tested on: recombinant human aminopeptidase B (APB); assay: Enzyme activity assay of recombinant APB; assay type: biochemical; details: APB 0.2 µg/mL, 60 mM Tris–HCl pH 7.4, 100 mM KCl, 0.1 mM L-arginine-7-amido-4-methylcoumarin, 30 min, 37 °C
Procedure: The effect of peptides on the enzymatic activity of APA and APB was evaluated using the method described previously with some modifications. Briefly, threefold serial dilution of peptides (ranging from 0 to 10 or 100 µM) were incubated with either APA (0.2 µg/mL in 60 mM Tris–HCl pH 7.4, 50 mM CaCl2, 200 mM NaCl) or APB (0.2 µg/mL in 60 mM Tris–HCl pH 7.4, 100 mM KCl) and relative substrates at 0.1 mM (L-glutamic acid γ-(7-amido-4-methylcoumarin) or L-arginine-7-amido-4-methylcoumarin, respectively) in 96-well bottom clear black polystyrene microtiter plates (100 µl/well). The mixture was incubated for 30 min at 37 °C in a humid box, and the cleavage of the substrate was correlated with aminopeptidase enzymatic activities by measuring the fluorescence of methylcoumarin at λex 341 nm and λem 441 nm with a plate reader (Infinite 200 PRO, Tecan). IC50 was calculated as reported above for CD13 activity.
Fig. 2 G4 recognizes soluble forms of CD13, with higher affinity and selectivity than bestatin, and the membrane forms expressed on the surface of HUVEC cells. […] The mixtures were incubated for 30 min at 37 °C, and the cleavage of each substrate was monitored by measuring the fluorescence of methylcoumarin (λex 341 nm; λem 441 nm) using an Infinite 200 PRO plate reader (Tecan). […] After incubation for 60 min at 4 °C, the cells were washed and analyzed by flow cytometry. […]

T1 sequence (P15144 33-967 limits assumed): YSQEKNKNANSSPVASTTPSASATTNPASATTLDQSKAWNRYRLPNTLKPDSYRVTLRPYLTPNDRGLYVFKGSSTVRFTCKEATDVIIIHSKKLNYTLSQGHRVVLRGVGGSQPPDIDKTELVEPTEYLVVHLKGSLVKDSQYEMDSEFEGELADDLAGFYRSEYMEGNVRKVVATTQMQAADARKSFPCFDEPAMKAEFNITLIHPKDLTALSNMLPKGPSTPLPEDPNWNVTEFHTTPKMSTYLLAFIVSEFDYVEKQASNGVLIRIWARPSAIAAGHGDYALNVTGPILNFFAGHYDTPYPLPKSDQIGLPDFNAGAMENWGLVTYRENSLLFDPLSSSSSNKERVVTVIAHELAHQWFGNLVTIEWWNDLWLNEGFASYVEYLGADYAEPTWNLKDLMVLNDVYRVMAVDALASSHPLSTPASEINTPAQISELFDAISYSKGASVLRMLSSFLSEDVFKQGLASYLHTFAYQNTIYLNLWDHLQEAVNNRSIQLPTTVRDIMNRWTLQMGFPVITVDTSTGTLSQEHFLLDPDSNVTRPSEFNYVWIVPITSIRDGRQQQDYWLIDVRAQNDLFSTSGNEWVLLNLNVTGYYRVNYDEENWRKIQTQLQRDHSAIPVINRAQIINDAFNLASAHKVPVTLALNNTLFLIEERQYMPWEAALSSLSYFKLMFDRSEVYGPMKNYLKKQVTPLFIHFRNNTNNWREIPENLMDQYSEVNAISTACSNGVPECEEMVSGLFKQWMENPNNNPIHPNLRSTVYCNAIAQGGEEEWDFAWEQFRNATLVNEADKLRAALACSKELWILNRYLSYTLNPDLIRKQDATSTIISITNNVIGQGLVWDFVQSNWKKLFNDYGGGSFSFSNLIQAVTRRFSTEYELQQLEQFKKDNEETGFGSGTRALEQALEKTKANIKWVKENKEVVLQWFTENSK

Compound | Competition of mAb WM15 binding to HUVEC (in words) [1] | Endothelial cell adhesion to coated plates (in words) (HUVEC) | Inhibition of rCD13 enzymatic activity (in words) [2] | Inhibition of rCD13 enzymatic activity (in words) [3] | Inhibition of APB enzymatic activity (in words) [4]
VGCARRYCSGGSGGGSGK-biotin [G4-avidin, …-biotin complexed with avidin] | competed the binding of mAb WM15 to endothelial cells | promoted endothelial cell adhesion | could not inhibit the enzymatic activity of recombinant soluble CD13 |  | 
CC(C)C[C@H](NC(=O)[C@@H](O)[C@H](N)Cc1ccccc1)C(=O)O [bestatin, Bestatin-hydrochloride] |  |  |  | inhibited both rCD13 and APB | inhibited both rCD13 and APB
